Patent publication US9682126B2, “Postprandial gastrokinetic agent” (ZERIA PHARMACEUTICAL CO., LTD., priority 2013, dated 2017)
Like-named read-outs stand apart in the source and are kept apart here. Ends that are not written are not given here. * marks the point of attachment. Octanoyl = CCCCCCCC(=O)*

What was measured:
[1] = test system: subjects; conditions: cited from earlier work
[2] = test system: Suncus murinus; assay: Postprandial gastric motility, force transducer on stomach, motility index MI (Example 1); type: in vivo; conditions: ghrelin 50 ng/kg iv after 10-min feed intake
Protocol: Effects of administration of each of ghrelin and motilin and co-administration of ghrelin and motilin on postprandial gastric motility in Suncus murinus were studied. Each of Suncus motilin (Scrum Inc., Tokyo, Japan) and human ghrelin (Asubio Pharma Co., Ltd., Hyogo, Japan) was dissolved in phosphate buffered saline (PBS) containing 0.1% bovine serum albumin. Suncus murinus (male, outbred KAT strain, 8 to 9 weeks old, 73 to 90 g) was used for the experiment. Each animal was bred in a plastic cage provided with an empty can as a nest box under the following conditions: temperature at 23±2° C., illumination between 8:00 and 20:00, and free intake of commercial trout feed (SP, Nippon Formula Feed Mfg Co., Ltd., Yokohama, Japan). After 3 hours of fasting, Suncus murinus was anesthetized by an intraperitoneal injection of pentobarbital sodium (50 mg/kg). Through a midline incision, the stomach was exposed outside the body, and a force transducer was fixed via suture in the circular muscle direction of the body of stomach. […] Amplified analog signals were converted into digital signals by an analog-to-digital converter (ADC-20, Pico Technology Ltd, St Neots, UK), and the digital signals were recorded on a computer. […] Gastric motility was quantitated using a motility index (MI). A motility index (MI) based on a drug was calculated using the following equation. […]

[3] = test system: Suncus murinus; assay: Postprandial motility by co-administration of ghrelin and motilin, ΔMI (Example 3); type: in vivo
Protocol: Each of Suncus motilin (Scrum Inc., Tokyo, Japan) and human ghrelin (Asubio Pharma Co., Ltd., Hyogo, Japan) was dissolved in PBS containing 0.1% bovine serum albumin.
Suncus murinus (male, outbred KAT strain, 7 to 39 weeks old, 56 to 91 g) was used for the experiment. The Each animal was bred in a plastic cage provided with an empty can as a nest box under the following conditions: temperature at 23±2° C., illumination between 8:00 and 20:00, and free intake of commercial trout feed (SP, Nippon Formula Feed Mfg Co., Ltd., Yokohama, Japan).
After 3 hours of fasting, Suncus murinus was anesthetized by an intraperitoneal injection of pentobarbital sodium (50 mg/kg). Through a midline incision, the stomach was exposed outside the body, and a force transducer was fixed via suture in the circular muscle direction of the body of stomach. The wire extending from the force transducer was inserted through the abdominal wall, passed under the skin, and exposed at the back of the neck.
An intravenous catheter was inserted in the right jugular, and extracorporeally fixed to the back. The catheter was filled with heparinized saline (100 units/mL) to prevent clotting.
Each of the operated Suncus murinus was allowed to recover for several days.
Drug administration and measurement of gastric motility were performed in the conscious, free-moving state without anesthesia.
2 g of feed was given to each Suncus murinus fastened (for 8 to 10 hours) for 10 minutes. After the intake of feed for 10 minutes, ghrelin (50, 1,000, or 3,000 ng/kg), motilin (300, 500, 1,000, or 3,000 ng/kg), or a mixed solution of ghrelin (15 or 50 ng/kg) and motilin (100, 200, or 300 ng/kg) was intravenously administered through a jugular vein catheter rapidly.
Amplified analog signals were converted into digital signals by an analog-to-digital converter (ADC-20, Pico Technology Ltd, St Neots, UK), and the digital signals were recorded on a computer.
Phase III contractions of MMC in conscious Suncus murinus were defined on the basis of those in dogs and humans (that is, clustered contractions with an amplitude of 8 g or more that lasts for 5 minutes or more).
Gastric motility was quantitated using a motility index (ΔMI). A motility index (ΔMI) based on a drug was calculated using the following equation. ΔMI (%)=(A−C)/B×100 A: AUC of contractions for 10 minutes during which the drug was administered B: AUC of 10-minute spontaneous phase III contractions appeared before administration of the drug C: (AUC of contractions appeared for 5 minutes between 5 and 10 minutes after the intake of feed)×2 (2) Results (FIG. 9) A. Action of Ghrelin Alone

[4] = test system: isolated stomach of Suncus murinus; conditions: ghrelin alone, even at a high dose, in vitro; cited from earlier work
[5] = test system: Suncus murinus; assay: Gastric motility in interdigestive period, sham-operated vs vagotomized (Example 2); type: in vivo; conditions: for amplitude of spontaneous phase II contractions: ghrelin 0.1, 0.3, 1, 3, or 10 μg/kg/min iv over 10 minutes in phase II
Protocol: Each of Suncus motilin (Scrum Inc., Tokyo, Japan) and human ghrelin (Asubio Pharma Co., Ltd., Hyogo, Japan) were dissolved in PBS containing 0.1% bovine serum albumin. Suncus murinus (male, outbred KAT strain, 7 to 15 weeks old, 60 to 100 g) was used for the experiment. Each animal was bred in a plastic cage provided with an empty can as a nest box under the following conditions: temperature at 23±2° C., illumination between 8:00 and 20:00, and free intake of commercial trout feed (SP, Nippon Formula Feed Mfg Co., Ltd., Yokohama, Japan). After 3 hours of fasting, Suncus murinus was anesthetized by an intraperitoneal injection of pentobarbital sodium (50 mg/kg). Through a midline incision, the stomach was exposed outside the body, and a force transducer was fixed via suture in the circular muscle direction of the body of stomach. The wire extending from the force transducer was inserted through the abdominal wall, passed under the skin, and exposed at the back of the neck. Thereafter, truncal vagotomy was performed. A lower portion of the esophagus was exposed, both branches of the vagus nerve were isolated, and about 3 mm of the vagus nerve was excised above the hepatic branch and the celiac branch. For sham-operated Suncus murinus, the vagus nerve was exposed, but not excised. An intravenous catheter was inserted in the right jugular, and extracorporeally fixed to the back. The catheter was filled with heparinized saline (100 units/mL) to prevent clotting. From 2 days after the operation, the gastric motility was recorded. Administration of motilin was initiated 10 minutes after completion of spontaneous phase III. Synthesized suncus motilin was continuously injected at 50 ng/kg/min over 10 minutes, and the continuously injected amount was 50 μL/100 g BW/min. Administration of ghrelin was initiated 10 minutes after completion of spontaneous phase II. […] Amplified analog signals were converted into digital signals by an analog-to-digital converter (ADC-20, Pico Technology Ltd, St Neots, UK), and the digital signals were recorded on a computer. Phase III contractions of MMC in conscious Suncus murinus were defined on the basis of those in dogs and humans (that is, clustered contractions with an amplitude of 8 g or more that lasts for 5 minutes or more). Gastric motility was quantitated using a motility index (MI). A motility index (MI) based on a drug was calculated using the following equation. MI (%)=A/B×100 A: AUC of contractions for 10 minutes during which the drug was administered B: […] Statistical analysis After ANOVA, Student's t test was performed.

[6] = ghrelin 50 ng/kg iv after feed intake
[7] = ghrelin 1,000 ng/kg iv after feed intake
[8] = ghrelin 3,000 ng/kg iv after feed intake

Compound	gastric emptying ([1]; mitemcinal administered to fasting subjects)	contractions of the body of the stomach [2]	Motility Index (ΔMI) [3, 6]	contractions of the body of the stomach [3, 6]	Motility Index (ΔMI) [3, 7]	contractions of the body of the stomach [3, 7]	Motility Index (ΔMI) [3, 8]	contractions of the body of the stomach [3, 8]	gastric emptying ([1]; continuous intravenous or massive administration of ghrelin after food intake, healthy subjects and patients with diabetes)	gastric contractions [4]	MI during administration of ghrelin, sham-operated compared with vagotomized ([5]; phase II of MMC, fasted)	amplitude of spontaneous phase II contractions ([5]; sham-operated)	amplitude of spontaneous phase II contractions ([5]; vagotomized)
CC[C@H]1OC(=O)[C@H](C)[C@@H](O[C@H]2C[C@@](C)(OC)[C@@H](O)[C@H](C)O2)[C@H](C)[C@@H](O[C@@H]2O[C@H](C)C[C@H](N(C)C(C)C)[C@H]2O)[C@@]2(C)CC(C)=C(O2)[C@H](C)C(=O)[C@]1(C)OC [mitemcinal]	enhances gastric emptying												
ghrelin: human ghrelin (Asubio Pharma); 28-amino acid residue peptide, hydroxyl group of serine at position 3 esterified by octanoic acid (GSS(Octanoyl)FLSPEHQRVQQRKESKKPPAKLQPR; UniProt Q9UBU3 24-51, looked up)		did not induce contractions of the body of the stomach	About 2.8%	did not induce contractions of the body of the stomach	About 7.6%	did not induce contractions of the body of the stomach	About 0.03%	did not induce contractions of the body of the stomach	accelerates gastric emptying	does not accelerate gastric contractions	higher	amplified the amplitude of spontaneous phase II contractions	did not change the amplitude of spontaneous phase II contractions
